The kinase profiling compilation of Christmann-Franck et al. (2016)

Columns and labels:
Assay in all cases: radiometric filter-binding kinase assay, Kinase HotSpot
Conditions in all cases: compound 0.5 µM; ATP 10 µM
AKT3 (human) = AKT3 (human) (UniProt Q9Y243)
CAMK2A (human) = CAMK2A (human) (UniProt Q9UQM7)
BTK (human) = BTK (human) (UniProt Q06187)
CAMK2D (human) = CAMK2D (human) (UniProt Q13557)
FER (human) = FER (human) (UniProt P16591)
MAP3K5 (human) = MAP3K5 (human) (UniProt Q99683)
PAK6 (human) = PAK6 (human) (UniProt Q9NQU5)
STK33 (human) = STK33 (human) (UniProt Q9BYT3)
PTK2B (human) = PTK2B (human) (UniProt Q14289)
TAOK3 (human) = TAOK3 (human) (UniProt Q9H2K8)
ACVR1B (human) = ACVR1B (human) (UniProt P36896)
INSR (human) = INSR (human) (UniProt P06213)
PBK (human) = PBK (human) (UniProt Q96KB5)
DAPK1 (human) = DAPK1 (human) (UniProt P53355)
MAPK11 (human) = MAPK11 (human) (UniProt Q15759)
[1] = molecular target: TYK2 JH1 catalytic (human) (UniProt P29597)
MAP3K8 (human) = MAP3K8 (human) (UniProt P41279)
MAP3K14 (human) = MAP3K14 (human) (UniProt Q99558)
AURKC (human) = AURKC (human) (UniProt Q9UQB9)
MAP3K3 (human) = MAP3K3 (human) (UniProt Q99759)
PDGFRB (human) = PDGFRB (human) (UniProt P09619)
PRKD3 (human) = PRKD3 (human) (UniProt O94806)
CDK2 CCNA2 (human) = CDK2 CCNA2 (human) (UniProt P24941+P20248)
NEK11 (human) = NEK11 (human) (UniProt Q8NG66)
SRPK2 (human) = SRPK2 (human) (UniProt P78362)
CSK (human) = CSK (human) (UniProt P41240)
PRKACG (human) = PRKACG (human) (UniProt P22612)
AXL (human) = AXL (human) (UniProt P30530)
PRKD1 (human) = PRKD1 (human) (UniProt Q15139)
MAPK8 (human) = MAPK8 (human) (UniProt P45983)
CSNK2A1 (human) = CSNK2A1 (human) (UniProt P68400)
ROCK1 (human) = ROCK1 (human) (UniProt Q13464)
LCK (human) = LCK (human) (UniProt P06239)
CAMK1D (human) = CAMK1D (human) (UniProt Q8IU85)
RPS6KA3 KD1 KD2 (human) = RPS6KA3 KD1 KD2 (human) (UniProt P51812)
EPHA4 (human) = EPHA4 (human) (UniProt P54764)
CDK6 CCND1 (human) = CDK6 CCND1 (human) (UniProt Q00534+P24385)
MAP4K2 (human) = MAP4K2 (human) (UniProt Q12851)
DYRK3 (human) = DYRK3 (human) (UniProt O43781)
STK38 (human) = STK38 (human) (UniProt Q15208)
SLK (human) = SLK (human) (UniProt Q9H2G2)
STK10 (human) = STK10 (human) (UniProt O94804)

EPHA4 (human), sequence (P54764 whole entry, looked up): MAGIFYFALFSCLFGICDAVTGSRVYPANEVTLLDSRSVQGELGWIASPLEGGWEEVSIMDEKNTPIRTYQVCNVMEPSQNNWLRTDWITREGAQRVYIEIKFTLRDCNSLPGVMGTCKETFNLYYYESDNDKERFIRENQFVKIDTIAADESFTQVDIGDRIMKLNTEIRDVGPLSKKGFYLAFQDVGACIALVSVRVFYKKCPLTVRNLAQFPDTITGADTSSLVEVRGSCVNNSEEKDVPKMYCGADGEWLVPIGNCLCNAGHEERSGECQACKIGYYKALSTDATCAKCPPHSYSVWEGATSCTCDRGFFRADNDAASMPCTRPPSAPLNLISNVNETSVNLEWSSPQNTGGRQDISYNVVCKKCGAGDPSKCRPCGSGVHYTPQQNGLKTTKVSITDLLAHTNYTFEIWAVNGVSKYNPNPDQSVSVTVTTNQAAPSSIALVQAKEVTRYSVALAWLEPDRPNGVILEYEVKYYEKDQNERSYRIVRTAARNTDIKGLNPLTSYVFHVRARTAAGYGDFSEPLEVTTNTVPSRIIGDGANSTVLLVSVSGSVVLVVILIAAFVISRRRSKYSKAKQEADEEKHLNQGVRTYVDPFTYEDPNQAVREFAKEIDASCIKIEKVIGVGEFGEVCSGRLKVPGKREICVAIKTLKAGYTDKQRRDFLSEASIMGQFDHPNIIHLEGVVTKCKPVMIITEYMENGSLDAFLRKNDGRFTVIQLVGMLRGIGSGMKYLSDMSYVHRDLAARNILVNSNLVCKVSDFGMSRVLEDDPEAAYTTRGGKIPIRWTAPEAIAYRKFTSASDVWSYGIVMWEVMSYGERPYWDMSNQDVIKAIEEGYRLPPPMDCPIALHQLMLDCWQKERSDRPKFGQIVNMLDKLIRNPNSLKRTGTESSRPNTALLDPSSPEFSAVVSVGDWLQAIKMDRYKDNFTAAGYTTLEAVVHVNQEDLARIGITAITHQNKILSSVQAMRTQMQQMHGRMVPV
PTK2B (human), sequence (Q14289 whole entry, looked up): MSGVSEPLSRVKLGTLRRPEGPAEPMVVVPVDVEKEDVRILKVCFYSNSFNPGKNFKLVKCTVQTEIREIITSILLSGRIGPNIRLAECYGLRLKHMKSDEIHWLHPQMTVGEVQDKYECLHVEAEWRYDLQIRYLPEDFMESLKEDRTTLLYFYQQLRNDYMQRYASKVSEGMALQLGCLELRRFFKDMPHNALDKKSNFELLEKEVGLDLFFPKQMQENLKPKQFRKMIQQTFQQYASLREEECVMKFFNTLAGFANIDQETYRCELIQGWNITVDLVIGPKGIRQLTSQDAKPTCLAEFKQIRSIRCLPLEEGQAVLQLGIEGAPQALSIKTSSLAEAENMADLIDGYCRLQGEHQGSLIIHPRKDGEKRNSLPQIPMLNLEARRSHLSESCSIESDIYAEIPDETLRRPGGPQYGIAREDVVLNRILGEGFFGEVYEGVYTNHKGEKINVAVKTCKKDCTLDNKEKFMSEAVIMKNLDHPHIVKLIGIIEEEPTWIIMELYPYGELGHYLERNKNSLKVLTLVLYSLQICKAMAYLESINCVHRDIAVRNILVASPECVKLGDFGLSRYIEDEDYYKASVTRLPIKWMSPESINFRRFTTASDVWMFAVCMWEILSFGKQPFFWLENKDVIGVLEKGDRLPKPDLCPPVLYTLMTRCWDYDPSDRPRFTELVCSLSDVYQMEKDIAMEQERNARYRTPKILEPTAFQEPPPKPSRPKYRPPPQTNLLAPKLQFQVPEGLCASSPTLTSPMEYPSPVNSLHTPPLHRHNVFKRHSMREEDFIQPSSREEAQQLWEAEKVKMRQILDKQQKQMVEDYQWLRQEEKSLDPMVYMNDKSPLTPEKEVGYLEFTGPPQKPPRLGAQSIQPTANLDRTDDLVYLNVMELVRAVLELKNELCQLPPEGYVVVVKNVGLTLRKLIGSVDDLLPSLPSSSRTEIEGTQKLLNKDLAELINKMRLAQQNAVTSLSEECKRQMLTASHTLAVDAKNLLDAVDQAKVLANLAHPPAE
TAOK3 (human), sequence (Q9H2K8 whole entry, looked up): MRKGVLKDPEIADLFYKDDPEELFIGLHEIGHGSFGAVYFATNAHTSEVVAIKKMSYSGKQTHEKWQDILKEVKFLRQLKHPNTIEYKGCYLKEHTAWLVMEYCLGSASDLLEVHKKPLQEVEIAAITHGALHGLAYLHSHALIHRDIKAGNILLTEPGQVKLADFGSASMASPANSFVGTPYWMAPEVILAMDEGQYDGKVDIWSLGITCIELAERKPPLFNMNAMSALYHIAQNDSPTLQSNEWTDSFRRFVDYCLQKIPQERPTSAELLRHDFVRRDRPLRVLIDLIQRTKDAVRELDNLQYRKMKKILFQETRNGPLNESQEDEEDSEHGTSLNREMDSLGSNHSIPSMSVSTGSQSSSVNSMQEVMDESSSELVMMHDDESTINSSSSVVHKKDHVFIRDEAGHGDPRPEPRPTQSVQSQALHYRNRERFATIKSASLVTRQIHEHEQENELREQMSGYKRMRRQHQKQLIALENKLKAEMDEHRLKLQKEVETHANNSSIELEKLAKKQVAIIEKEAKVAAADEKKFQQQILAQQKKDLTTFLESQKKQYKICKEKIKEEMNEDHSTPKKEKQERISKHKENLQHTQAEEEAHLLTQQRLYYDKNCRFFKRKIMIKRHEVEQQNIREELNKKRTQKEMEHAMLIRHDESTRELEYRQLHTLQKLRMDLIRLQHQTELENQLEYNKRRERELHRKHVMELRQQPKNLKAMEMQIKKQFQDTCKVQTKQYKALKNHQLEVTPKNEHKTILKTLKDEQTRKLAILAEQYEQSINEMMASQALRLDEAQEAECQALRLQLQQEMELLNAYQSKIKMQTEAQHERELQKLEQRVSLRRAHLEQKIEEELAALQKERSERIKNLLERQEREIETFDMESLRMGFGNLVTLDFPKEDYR
MAP3K14 (human), sequence (Q99558 whole entry, looked up): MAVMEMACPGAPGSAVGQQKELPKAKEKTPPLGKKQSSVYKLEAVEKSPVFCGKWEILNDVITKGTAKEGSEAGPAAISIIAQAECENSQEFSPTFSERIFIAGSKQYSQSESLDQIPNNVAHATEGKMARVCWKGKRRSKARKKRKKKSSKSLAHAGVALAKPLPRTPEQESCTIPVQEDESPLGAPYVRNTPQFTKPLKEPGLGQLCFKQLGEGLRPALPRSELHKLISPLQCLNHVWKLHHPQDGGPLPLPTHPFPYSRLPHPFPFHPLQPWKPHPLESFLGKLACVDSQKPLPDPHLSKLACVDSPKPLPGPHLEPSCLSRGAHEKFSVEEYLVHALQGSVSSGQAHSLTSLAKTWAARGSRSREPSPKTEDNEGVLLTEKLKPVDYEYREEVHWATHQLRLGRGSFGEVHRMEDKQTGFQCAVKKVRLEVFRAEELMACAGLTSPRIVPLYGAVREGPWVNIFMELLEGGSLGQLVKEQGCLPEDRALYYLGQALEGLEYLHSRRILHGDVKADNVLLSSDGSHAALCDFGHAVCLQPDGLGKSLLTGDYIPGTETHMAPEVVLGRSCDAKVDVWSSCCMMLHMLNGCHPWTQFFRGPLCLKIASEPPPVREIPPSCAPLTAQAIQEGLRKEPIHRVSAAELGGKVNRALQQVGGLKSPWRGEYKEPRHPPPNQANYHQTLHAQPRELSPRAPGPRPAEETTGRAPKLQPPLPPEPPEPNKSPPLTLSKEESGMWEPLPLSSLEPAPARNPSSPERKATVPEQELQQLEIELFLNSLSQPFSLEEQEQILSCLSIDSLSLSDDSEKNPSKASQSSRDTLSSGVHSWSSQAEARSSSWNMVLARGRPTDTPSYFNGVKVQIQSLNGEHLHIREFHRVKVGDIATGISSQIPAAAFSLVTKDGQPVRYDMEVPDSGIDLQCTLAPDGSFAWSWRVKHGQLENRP
CSNK2A1 (human), sequence (P68400 whole entry, looked up): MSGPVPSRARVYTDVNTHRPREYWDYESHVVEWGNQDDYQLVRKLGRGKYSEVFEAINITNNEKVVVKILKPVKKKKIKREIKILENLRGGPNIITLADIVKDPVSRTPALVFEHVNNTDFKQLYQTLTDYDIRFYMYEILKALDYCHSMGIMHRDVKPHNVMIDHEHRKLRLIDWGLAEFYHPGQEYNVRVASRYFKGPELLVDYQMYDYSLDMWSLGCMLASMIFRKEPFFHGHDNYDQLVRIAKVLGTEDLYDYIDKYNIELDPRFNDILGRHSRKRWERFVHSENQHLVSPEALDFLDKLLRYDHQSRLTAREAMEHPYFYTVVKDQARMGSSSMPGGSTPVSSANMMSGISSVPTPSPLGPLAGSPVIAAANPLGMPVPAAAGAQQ
CDK6 CCND1 (human), sequence (P24385 whole entry, looked up): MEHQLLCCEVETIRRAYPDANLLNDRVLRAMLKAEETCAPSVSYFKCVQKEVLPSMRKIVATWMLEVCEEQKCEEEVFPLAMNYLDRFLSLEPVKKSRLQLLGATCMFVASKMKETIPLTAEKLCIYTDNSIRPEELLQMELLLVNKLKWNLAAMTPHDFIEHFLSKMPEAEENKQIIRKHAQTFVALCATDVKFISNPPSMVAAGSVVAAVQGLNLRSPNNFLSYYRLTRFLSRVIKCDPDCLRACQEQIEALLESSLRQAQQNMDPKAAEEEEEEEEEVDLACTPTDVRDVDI
CDK6 CCND1 (human), sequence (Q00534 whole entry, looked up): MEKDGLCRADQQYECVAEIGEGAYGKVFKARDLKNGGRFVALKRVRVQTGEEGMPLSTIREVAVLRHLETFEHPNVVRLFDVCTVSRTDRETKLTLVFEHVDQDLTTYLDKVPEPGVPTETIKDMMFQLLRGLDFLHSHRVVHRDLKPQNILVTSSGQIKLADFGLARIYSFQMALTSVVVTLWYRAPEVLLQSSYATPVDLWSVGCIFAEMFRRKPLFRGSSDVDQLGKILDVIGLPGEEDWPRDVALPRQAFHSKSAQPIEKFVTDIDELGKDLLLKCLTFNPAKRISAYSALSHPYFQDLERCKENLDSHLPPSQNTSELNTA

O=C1NC(=O)/C(=C/c2ccc3c(c2)OC(F)(F)O3)S1
residual activity (AKT3 (human)): 103% | residual activity (CAMK2A (human)): 96.8% | residual activity (BTK (human)): 94.3% | residual activity (CAMK2D (human)): 97.1% | residual activity (FER (human)): 97.2% | residual activity (MAP3K5 (human)): 105% | residual activity (PAK6 (human)): 103% | residual activity (STK33 (human)): 90.8% | residual activity (PTK2B (human)): 110% | residual activity (TAOK3 (human)): 84.7% | residual activity (ACVR1B (human)): 99.4% | residual activity (INSR (human)): 106% | residual activity (PBK (human)): 91.8% | residual activity (DAPK1 (human)): 120% | residual activity (MAPK11 (human)): 95.7% | residual activity [1]: 88.4% | residual activity (MAP3K8 (human)): 93% | residual activity (MAP3K14 (human)): 106% | residual activity (AURKC (human)): 98.1% | residual activity (MAP3K3 (human)): 103% | residual activity (PDGFRB (human)): 97.4% | residual activity (PRKD3 (human)): 91.4% | residual activity (CDK2 CCNA2 (human)): 107% | residual activity (NEK11 (human)): 111% | residual activity (SRPK2 (human)): 105% | residual activity (CSK (human)): 88% | residual activity (PRKACG (human)): 102% | residual activity (AXL (human)): 107% | residual activity (PRKD1 (human)): 94.8% | residual activity (MAPK8 (human)): 95.1% | residual activity (CSNK2A1 (human)): 22.6% | residual activity (ROCK1 (human)): 93.7% | residual activity (LCK (human)): 98.3% | residual activity (CAMK1D (human)): 83.2% | residual activity (RPS6KA3 KD1 KD2 (human)): 103% | residual activity (EPHA4 (human)): 95.9% | residual activity (CDK6 CCND1 (human)): 95.4% | residual activity (MAP4K2 (human)): 90.7% | residual activity (DYRK3 (human)): 100% | residual activity (STK38 (human)): 107% | residual activity (SLK (human)): 98.3% | residual activity (STK10 (human)): 98.6%
